Residues, ends and D or L forms follow the SMILES beside them.
Columns and labels:
Assay type in all cases: cell-based, human
HSC-4 cells [1] = assay: MTT growth inhibition by SSTP1 with or without IL6 pathway inhibitors; settings: 4h SSTP1 (10 μM), pre-treatment LMT-28 60 μM 1.5 h, Anti-IL6Rα 10µg/ml 2h, SC144 40 μM 2h
Protocol: (§1) Concentration- and time-dependent effects on cell growth inhibition were measured using the MTT [3-(4,5-dimethylthiazol-2-yl)−2,5-diphenyltetrazolium bromide] assay. 5000 cells/well were seeded in 96-well plate and were treated with peptides for 48h. Cells were incubated with MTT (1.25 mg/ml) for 2 hours at 37°C. The blue formazan crystals were solubilized in isopropanol and read at 595 nm.
Figure 8 SSTP1-induced pcJUN activation depends on JNK and on gp130 and IL6Rα. (A) HSC-4 cells treated with SSTP1 (30 minute) and the indicated inhibitors were used for western blot analysis of the indicated molecules (B) Densitometric analysis was done for the bands of (a) and relative phosphorylation based on untreated is plotted. (C) The cells treated with SSTP1 (30 minutes) and IL6Rα antibody or SC144 were used for western blot analysis of the indicated molecules. (D) Densitometric analysis was done for the bands of (C) and relative phosphorylation based on untreated is plotted. (E) Growth inhibition analyzed by MTT assay after 4h treatment with SSTP1(10 μM) with or without the inhibitors. LMT-28 (60 μM). For all the experiments SSTP1 (10 μM) was used with or without LMT-28 (60 μM), Ruxolitinib (30 μM) or SP600125 (20 μM), Anti-IL6Rα (10µg/ml) or SC144 (40 μM). […]

HSC-4 cells [2] = assay: MTT growth inhibition assay, HSC-4 cells; settings: 48 h
Protocol: as §1
IC50 value for HSC-4 cells and MDA-MB-231cells were calculated with Dose-response model. Analysis of dose-response data is made available through the ‘drc’ package in R environment for statistical computing. […] The statistical significance between two groups was analyzed using Students paired two-tailed t-test.
Figure 1 SSTP1 induces apoptosis in oral cancer cells (A) HSC-4 cells were treated with peptides SSTP1 and SSTP2 at different concentrations in 0.5% DMEM for 48 h, and MTT assay was performed to calculate % growth inhibition. […] (C)The quantified populations are represented in the graph. […] (D) The HSC-4 cells treated with 10 μM SSTP1 or SSTP2 for indicated time intervals were used for western blot analyses (E) Densitometric analysis was done for the bands, and fold change based on 0min was calculated. […]

MDA-MB-231 cells = settings: 48 h
Protocol: as §1
IC50 value for HSC-4 cells and MDA-MB-231cells were calculated with Dose-response model. Analysis of dose-response data is made available through the ‘drc’ package in R environment for statistical computing. The “drm” function in the package “drc” is a general model fitting function for analysis of concentration/dose/time-effect/response data and the four parameter a log-logistic model was fitted for estimating the slope, lower, upper and IC50 values. […] The statistical significance between two groups was analyzed using Students paired two-tailed t-test.
Figure 10 Sensitivity of cancer cells to SSTP1 depends on the level of IL6Rα. […] (C) Growth inhibition analyzed by MTT assay using 10 μM SSTP1 treated for 48h. (D) Growth inhibitory curve of SSTP1 for MDA-MB-231 cells and HEK-293 cells analyzed after 48h treatment with SSTP1 and Hemolysis induced by SSTP1 on human RBC. […] (F) The blots were quantified using ImageJ, and the graphs were plotted. *p < .05, **p < .01, ***p < .001.

Question: With `O=C(NNc1nc2cc(F)ccc2n2cccc12)c1cnccn1` [SC144] as the compound, how does the “effect on SSTP1-induced growth inhibition” value (HSC-4 cells [1]) read?
Answer: The value was “significantly inhibited”.

Question: With `CC[C@H](C)[C@H](NC(=O)[C@H](CCCNC(=N)N)NC(=O)[C@H](CCCNC(=N)N)NC(=O)[C@@H]1CCCN1C(=O)[C@H](CC(C)C)NC(=O)[C@@H](N)Cc1ccccc1)C(=O)N[C@@H](CO)C(=O)N[C@@H](C)C(=O)N[C@@H](CCCNC(=N)N)C(=O)N[C@H](C(=O)N[C@@H](CO)C(=O)N[C@@H](CC(C)C)C(=O)N[C@@H](Cc1ccccc1)C(=O)N1CCC[C@H]1C(=O)N[C@@H](CCCCN)C(=O)N[C@@H](CCCNC(=N)N)C(=O)NCC(=O)N[C@@H](CCCCN)C(N)=O)[C@@H](C)O` [SSTP2] (H-FLPRRISARTSLFPKRGK-NH2) as the compound, how does the “cytotoxicity (growth inhibition) in words” value (HSC-4 cells [2]; HSC-4 cells, MTT) read?
Answer: The value was “negligible cytotoxicity”.

Question: Which IC50 (HSC-4 cells [2]) does the source give for `CC[C@H](C)[C@H](NC(=O)[C@H](CC(C)C)NC(=O)[C@H](CC(C)C)NC(=O)[C@@H]1CCCN1C(=O)[C@H](CC(C)C)NC(=O)[C@@H](N)Cc1ccccc1)C(=O)N[C@@H](CO)C(=O)N[C@@H](C)C(=O)N[C@@H](CC(C)C)C(=O)N[C@H](C(=O)N[C@@H](CO)C(=O)N[C@@H](CC(C)C)C(=O)N[C@@H](Cc1ccccc1)C(=O)N1CCC[C@H]1C(=O)N[C@@H](CCCCN)C(=O)N[C@@H](CC(C)C)C(=O)NCC(=O)N[C@@H](CCCCN)C(=O)O)[C@@H](C)O` [SSTP1] (H-FLPLLISALTSLFPKLGK-OH) here?
Answer: Its IC50 is 10.2 µM.

Question: What about the IC50 (MDA-MB-231 cells) of the same compound?
Answer: Its IC50 is 4.5 µM.
